Laboratory results taken from US7632972B2, “Compounds and methods for treatment of cancer and modulation of programmed cell death for melanoma and other cancer cells” (The Board of Trustees of the University of Illionis, priority 2003, dated 2009).
Entries after “also recorded” stand apart in the source; their conditions may differ.

How the values were obtained:
U-937 cells [1] = assay: High-throughput cell death assay on library members (MTS/PMS); type: cell-based, human; conditions: library members at 100 μM, 24 hours
Protocol: A three-tiered system was devised to identify compounds that selectively induce apoptosis in cancer cells. First, all compounds were screened at 100 μM in a high-throughput manner for their ability to induce death in two cancer cell lines, HL-60 (leukemia) and U-937 (lymphoma).
Test compounds were transferred into the wells using a 96-pin transfer apparatus (V & P Scientific, San Diego Calif.) that transfers 0.2 μL of compound. The compounds were made up as 50 mM stock solutions in 100% EtOH, so one transfer gave a final concentration of 100 μM. Controls were performed in which only EtOH (containing no compound) was pin-transferred into wells containing cells. The cells were incubated with the compounds for 24 hours, and then cell death was quantitated.

in vitro = type: cell-based, human; conditions: human
U-937 cells [2] = assay: Analysis of mitochondria depolarization by flow cytometry (JC-9 dye); type: cell-based, human
Protocol: Further experiments assessed whether the observed death from 12-D, 13-D, and 15-D was due to apoptosis or necrosis.
Analysis of Mitochondria Depolarization by Flow Cytometry: The depolarization of the mitochondrial membrane was measured by the fluorescence emitted by the JC-9 dye (Molecular Probes, Eugene Oreg.). 100 μM of 13-D or 10 μM etoposide in 1 μL of EtOH were added to cell culture flasks containing 50 mL of 10×10^6 U-937 cells/mL. […] 10 μg of the JC-9 dye was added to 1×10^6 cells in 1 mL and incubated at room temperature for 10 min. Cells were washed twice with PBS and resuspended in a final volume of 500 μL PBS. The fluorescence intensity of each cell was determined by flow cytometry at 525 nm (channel 1 green) and 675 nm (channel 4 red). 50,000 cells were analyzed in each experiment. The data was then analyzed using Summit Software (Cytomation, Fort Collins Colo.) and the number of cells within the upper left region, viable cells, was determined.
Apoptotic assays. To determine whether the observed death was due to apoptosis or necrosis, several apoptotic hallmarks were examined. Thus early stage (mitochondrial membrane depolarization), middle stage (caspase-3 like activation, PARP-1 cleavage) and late stage (chromatin condensation, phosphatidylserine exposure, membrane blebbing) biochemical events were monitored. The depolarization of mitochondrial membranes facilitates the release of pro-apoptotic proteins such as cytochrome c and AIF (apoptosis inducing factor) from the mitochondria into the cytosol. Several dyes, including JC-9, have been developed that provide a sensitive readout on this process. […] The release of pro-apoptotic stimuli from the mitochondria initiates a cascade of events that ultimately results in the activation of the “executioner” caspases, typically caspase-3 and caspase-7. The caspase-3-like activity of the cells can be monitored with peptidic substrates. […] PARP-1 cleavage. A final event in apoptosis is the exposure of phosphatidylserine on the outer leaflet of the cell membrane; this event allows for recognition of apoptotic cells by phagocytes, ultimately leading to the engulfment of the apoptotic cell and the recycling of the various cellular components.

cell cycle = assay: Cell cycle analysis, DNA content by flow cytometry of propidium iodide stained cells; type: cell-based; conditions: position of cell cycle arrest
Protocol: Cell cycle analysis and NCl screen. The data in FIG. 21 and Table 11 show potential structure-activity trends. Several amides derived from the triphenylacetic acid (TPA) and triphenylpropionic acid (TPP) building blocks induced a high degree of cell death in this assay. Experiments were conducted to determine the position on the cell cycle at which these compounds arrest cell growth. This is typically determined by assessing the DNA content as measured flow cytometry analysis of cells stained by propidium iodide. Flow cytometry data is presented in FIG. 22, along with control data. […] One of the active apoptotic inducers identified from this combinatorial library that was not derived from the TPA or TPP building blocks (x) also arrests cell growth in the G2/M phase as indicated by the data in FIG. 22B. However, compounds containing the triphenylacetic acid and triphenylpropionic acid building blocks all arrest cell growth in the G1 phase (FIG. 22C and FIG. 22D). Here compounds x and y correspond to compounds Z2 and Z3.

[3] = system: etoposide induced apoptosis; assay: Inhibition of etoposide induced apoptosis; type: cell-based
splenocytes = assay: Splenocyte toxicity assay (concanavalin A stimulated, MTS/PMS); conditions: 72 h
Protocol: For this experiment, the spleen from a euthanized mouse was harvested, and the splenocytes isolated.
Splenocyte Toxicity Assay: Splenocytes were isolated from the spleen of a 7-month old male C57Black/6 mouse and suspended in 1 mL RPMI 1640+10% FBS+2.5 μg/mL concanavalin A. These cells were counted and diluted so that 2.5×10^5 cells were seeded in to each well containing a total of 200 μL of media. […] 1 μL of EtOH was added to separate control wells. After 72 hours of incubation, 20 μL of the MTS/PMS CellTiter 96 Cell Proliferation Assay reagent (Promega, Madison Wis.) was added to each well. The plates were incubated at 37° C. for approximately two hours until the colored product formed and the absorbance was then measured at 490 nm in a Spectra Max Plus 384 plate reader (Molecular Devices, Sunnyvale Calif.).

[4] = system: caspase-3 like protease activity in U-937 cells; assay: Caspase-3 activity assay (Ac-DEVD-pNA cleavage by cell lysates); type: cell-based, human; conditions: 100 μM
Protocol: Caspase-3 Activity Assay: The amount of caspase-3 like protease activity was determined by the amount of Ac-DEVD-pNA (N-acetyl-Asp-Glu-Val-Asp p-nitroanilide) cleaved per minute by cell lysates. To accomplish this, 100 μM of 13-D was added to cell culture flasks containing 50 mL of 10×10^6 U-937 cells/mL at 72, 48, 36, 24, 12 and 0 hours before harvesting. Cells were harvested by centrifugation, counted and diluted with RPMI 1640 media to a concentration of 4×10^6 cells/mL. 100 μL of the diluted cells were added to the wells of a 96-well plate in quadruplicate. The plate was then spun at 1000×g for 5 minutes to pellet the cells. […] The slope of the linear portion for each compound was then determined and any cleavage of the substrate in the control wells was subtracted out. The amount of Ac-DEVD-pNA cleaved in pmol/min was then calculated and plotted.
Apoptotic assays. […] Thus early stage (mitochondrial membrane depolarization), middle stage (caspase-3 like activation, PARP-1 cleavage) and late stage (chromatin condensation, phosphatidylserine exposure, membrane blebbing) biochemical events were monitored. […] Several dyes, including JC-9, have been developed that provide a sensitive readout on this process. […] The caspase-3-like activity of the cells can be monitored with peptidic substrates. […]

U-937 cells [5] = assay: Microscopy of treated cells; type: cell-based, human; conditions: 100 μM
Protocol: Compound 13-D was added to make a final concentration of 100 μM. Pictures of the cells were taken at various times using a Carl Zeiss confocal microscope (Carl Zeiss, Thornwood N.Y.). Picture at 100×; FIG. 9B. Picture at 100×; FIG. 10A. Picture at 400×; FIG. 10B. Picture at 400×; FIG. 10C. Picture at 400×; and FIG. 11. Picture at 200×.

T cells = type: cell-based, mouse
Description: Erythrocytes were selectively lysed and the T cells were highly enriched by using a mouse erythrocyte lysing kit and a mouse T cell enrichment column (R & D Systems, Minneapolis Minn.). FITC labeled anti-TCR antibodies were used to determine the purity of T cells in pre- and post-column samples. The T cells were enriched from approximately 35% to 90% of the total cell population (see FIG. 6A, 6B below). […] These cells were either stimulated to grow (by addition of ConA to a concentration of 2.5 μg/mL) or left untreated. […] After the 72 hours of incubation, 200 μL of cells were diluted in 300 μL PBS. Propidium iodide was then added to a concentration of 1 μg/mL. Cells were then incubated at room temperature for 5 minutes and analyzed by flow cytometry. The fluorescene intensity of each cell was determined at 620 nm (channel 3) and at least 50,000 cells were analyzed for each experiment (FIG. 7A, 7B, below). The data was then analyzed using Summit Software (Cytomation, Fort Collins Colo.) and the number of viable cells was determined. Non-concanavalin A stimulated T cells were also treated with 13-D, and viable cells in these samples were determined by PI staining (as above).
FIG. 7A illustrates flow cytometry data from Concanavalin A stimulated T cells; region R1 indicates 86.4% viable cells. […]

SMILES | Induction of death in U-937 cells (percentages of cell death) (U-937 cells [1]) | IC50 at 72 h (in vitro) | observed death due to apoptosis or necrosis (U-937 cells [2]) | other results
COc1cc(/C=C/C(=O)NC[C@@H](O)c2ccccc2)ccc1O (stereo in doubt) [Compound 12-D, 3-(4-Hydroxy-3-methoxy-phenyl)-N-(2-hydroxy-2-phenyl-ethyl)-acrylamide] | 82% | 61 µM | induced some apoptosis, some necrosis | –
CC(=O)O[C@H]1C(=O)[C@@]2(C)[C@H]([C@H](OC(=O)c3ccccc3)[C@]3(O)C[C@H](OC(=O)[C@H](O)[C@@H](NC(=O)c4ccccc4)c4ccccc4)C(C)=C1C3(C)C)[C@]1(OC(C)=O)CO[C@@H]1C[C@@H]2O [Taxol] | – | – | – | cell cycle arrest (cell cycle): mitotic (M) phase arrest
COc1cc(/C=C/C(=O)NC[C@H](O)c2ccc(O)cc2)ccc1O [Compound 15-D, N-[2-(R)-Hydroxy-2-(4-hydroxy-phenyl)-ethyl]-3-(4-hydroxy-3-methoxy-phenyl)-acrylamide] | 89% | 109 µM | induced some apoptosis, some necrosis | –
COc1cc(/C=C/C(=O)NC[C@@H](OC)c2ccc(O)cc2)ccc1O [Compound 9-D, 3-(4-Hydroxy-3-(S)-methoxy-phenyl)-N-[2-(4-hydroxy-phenyl)-2-methoxy-ethyl]-acrylamide] | 20% | 273 µM | – | activity in assays exploring inhibition of etoposide induced apoptosis [3]: Neither compound 1 nor any library members showed activity
COc1cc(/C=C/C(=O)NC[C@@H](O)c2ccc(O)cc2)ccc1O [Compound 13-D, N-[2-(S)-Hydroxy-2-(4-hydroxy-phenyl)-ethyl]-3-(4-hydroxy-3-methoxy-phenyl)-acrylamide] | 87% | 44 µM | induced apoptosis | toxicity towards actively dividing splenocytes (splenocytes; 500 μM): virtually no death; also recorded: virtually no toxicity; IC50 (splenocytes; Mus musculus, Splenocyte, read-out: IC50 for non-cancerous splenocytes): > 1000 µM; caspase-3 activity [4]: strong induction of caspase-3 activity; microscopy, evidence of apoptosis (U-937 cells [5]): membrane blebbing and cell shrinkage; cell population in which apoptosis is induced (JC-9 staining) (U-937 cells [2]; 100 μM, 72 h): over 70%; viable cells, treated versus non-treated control cells (T cells): no difference was observed
